Experimental data reported in PubChem BioAssay (NCI).
Values joined by “and” are separate entries in the source; they are usually repeats but may differ in a detail not shown here. Identical values can stand only once.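 Exposure lasted 48 hours, with cells grown in 96-well plates and compounds tested at five concentrations. At the GI50, growth is halved. TGI: concentration producing complete growth inhibition.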

Legend:
Assay in all cases: growth of human tumour cells (NCI), 48 h
SK-MEL-28 melanoma = test system: SK-MEL-28 melanoma
KM12 colon = test system: KM12 colon
SK-OV-3 ovarian = test system: SK-OV-3 ovarian
HL-60(TB) leukemia = test system: HL-60(TB) leukemia
ACHN renal = test system: ACHN renal
MALME-3M melanoma = test system: MALME-3M melanoma
NCI-H23 lung = test system: NCI-H23 lung
HCT-15 colon = test system: HCT-15 colon
SF-539 CNS = test system: SF-539 CNS
A498 renal = test system: A498 renal

| Compound | GI50 (SK-MEL-28 melanoma) [µM] | TGI (SK-MEL-28 melanoma) [µM] | GI50 (KM12 colon) | TGI (KM12 colon) [µM] | GI50 (SK-OV-3 ovarian) [µM] | TGI (SK-OV-3 ovarian) [µM] | GI50 (HL-60(TB) leukemia) [µM] | TGI (HL-60(TB) leukemia) [µM] | GI50 (ACHN renal) [µM] | TGI (ACHN renal) [µM] | GI50 (MALME-3M melanoma) [µM] | TGI (MALME-3M melanoma) [µM] | GI50 (NCI-H23 lung) | TGI (NCI-H23 lung) [µM] | GI50 (HCT-15 colon) [µM] | TGI (HCT-15 colon) [µM] | GI50 (SF-539 CNS) [µM] | TGI (SF-539 CNS) [µM] | GI50 (A498 renal) [µM] | TGI (A498 renal) [µM] |
| --- | --- | --- | --- | --- | --- | --- | --- | --- | --- | --- | --- | --- | --- | --- | --- | --- | --- | --- | --- | --- |
| Cc1cc(N2CCN(C)CC2)nc(NCc2cc(Nc3ccnc4cc(Cl)ccc34)ccc2F)n1 | 1.67 | 3.28 | 3.2 µM | > 100 | 2.64 | 6.27 | 1.86 | 3.96 | 1.88 | 3.45 | 2.08 | 3.89 | 3.46 µM | > 100 | 2.21 | 8.36 | 1.69 | 3.24 | 1.52 | 4.03 |
| N=CCCN(CCC=N)c1ccc(/C=C2\CN(NC(=O)c3ccc(Cl)cc3)C(c3ccccc3)=N2)cc1 | – | > 100 | – | > 100 | – | > 100 | – | > 100 | – | > 100 | – | > 100 | – | > 100 | – | > 100 | – | > 100 | – | > 100 |
| COC1C(O)C(C)OC(OC2C(Oc3cccc4c(O)c5c(=O)oc6ccc(C)c7c(=O)oc(c34)c5c67)OC(C)C3O[C@H](c4ccccc4)OC32)C1O (some centres undefined) | – | 3.92 | 0.331 µM and 0.312 µM | 8.49 | – | 7.94 | – | 4.53 | 0.0276 | – | – | 3.72 | 0.32 µM and 0.2 µM | 4.75 | 0.516 | 6.65 | 0.198 | 2.23 | – | 1.11 |
| O=C(Cc1nc2ccccc2c(=O)n1-c1c(Cl)cccc1Cl)c1ccncc1 | – | 43.6 | – | 32.3 | – | > 100 | – | 30.6 | – | 42.4 | – | 56.2 | – | > 100 | – | > 100 | – | 34.5 | – | 72.3 |
| C=CCn1c(=O)c2cnc(Nc3ccc(N4CCN(C)CC4)cc3)nc2n1-c1ccc2c(n1)[C@@](O)(CC)CC2 | 3.68 | 21.6 | 0.391 µM | 3.82 | 0.284 | 4.48 | 0.189 | 1.3 | 0.161 | 36.8 | 0.576 | 12 | 0.25 µM | 1.42 | 0.949 | 13.8 | 0.175 | 0.68 | 0.161 | 3.62 |
| NC(N)=NS(=O)(=O)c1ccc(Nc2c3ccccc3nc3c(C(=O)N4CCN(CCO)CC4)cccc23)cc1 | – | > 100 | – | > 100 | – | > 100 | – | > 100 | – | > 100 | – | > 100 | – | > 100 | – | > 100 | – | > 100 | – | > 100 |
| COc1cc(/C=N/Nc2ncnc3c2cnn3C(C)C)ccc1O | 8.08 | > 25 | 6.2 µM | 24.7 | 10.1 | > 25 | 4.07 | 11.9 | 5.95 | > 25 | 15 | > 25 | 6.05 µM | > 25 | 11 | > 25 | 4.76 | 15.2 | 8.58 | 24.8 |
| O=C(/C=C/c1ccccc1)c1c[nH]c2ccccc2c1=O | 6.53 | 19.4 | 3.37 µM | 11 | 2.53 | 6.82 | 2.81 | 10.6 | 3.01 | 11.7 | 8.81 | 27.1 | 3.17 µM | 15.2 | 2.08 | 13.2 | 2.55 | 8.81 | 2.3 | 10.3 |
| O=C1c2ccccc2NC(c2cc(Cl)cc(Cl)c2O)N1CCc1ccccn1 (centres undefined) | – | > 100 | – | > 100 | – | > 100 | – | > 100 | – | > 100 | – | > 100 | – | > 100 | – | > 100 | – | > 100 | – | > 100 |
| C=C1C(=O)O[C@H]2[C@H]1CC/C(Cn1cc(CNCCc3c[nH]c4ccc(Cl)cc34)nn1)=C\CC[C@@]1(C)O[C@@H]21 | 10.7 | 25.2 | 17.1 µM | 44.1 | 35 | > 100 | 1.12 | 3.46 | 10.2 | 22.2 | 2.4 | 6.61 | 17 µM | 45.5 | 13.4 | 29.9 | 4.23 | 14.6 | 12.8 | 34.5 |
| Cc1ccc(NC(=O)CC/C(CC(=O)C(C)(C)C)=N/NC(=O)C(N)=O)cc1C | – | > 100 | – | > 100 | – | > 100 | – | > 100 | – | > 100 | – | > 100 | – | > 100 | – | > 100 | – | > 100 | – | > 100 |
| Cc1oc2nc[nH]c(=O)c2c1C(=O)/C=C/c1ccc(Cl)cc1 | 2.51 | 8.77 | 2.97 µM | 9.16 | 3.09 | 13.8 | 2.64 | 7.78 | 1.99 | 6.04 | 2.13 | 8.29 | 2.51 µM | 15.3 | 1.29 | 3.51 | 2.37 | 6.71 | 1.48 | 5.83 |
| COc1c(C2=NC(C(C)C)CO2)ccc2ccccc12 (centres undefined) | – | > 100 | – | > 100 | – | > 100 | – | 42.9 | – | > 100 | – | > 100 | – | > 100 | – | > 100 | – | > 100 | – | > 100 |
| O=C(/C=C/C12c3ccccc3C(c3ccccc31)C1C(=O)N(c3ccccc3)C(=O)C12)c1ccc(Cl)cc1 (centres undefined) | 1.98 | 5.11 | 2.18 µM | > 100 | 5.28 | > 100 | 0.795 | 5.18 | 1.39 | 2.81 | 1.6 | 3.37 | 2.61 µM | 13.2 | 1.19 | 6.46 | 1.69 | 3.79 | 1.16 | 2.44 |
| CC1(C)CCC[C@@]2(C)C1C[C@H](O)[C@@]1(C)O[C@@](C)([C@H](O)CO)CCC21 (some centres undefined) | – | > 100 | – | > 100 | – | 79.4 | – | 48.1 | – | 74.9 | – | > 100 | – | > 100 | – | > 100 | – | > 100 | – | 77.1 |
